Data set [1] deals with chicken chorioallantoic membrane (CAM). As to the kind of experiment: Characterization of angiogenesis in vivo by CAM assay. The note with it: 1 mM in PBS from filter paper circles, embryonic day 5, 21 hrs and 42 hrs. As to the method: Characterization of Angiogenesis In Vivo by CAM Assay.
In vivo assessment of the anti-angiogenic potential of PAs and peptide was performed using the chicken chorioallantoic membrane (CAM). In this well-established CAM assay, angiogenesis of the extraembryonic allantois was measured at several time points after treatment with PAs or peptide. Fertilized chicken eggs (Sunnyside Hatchery) were received and cultured in a temperature controlled, humidified egg incubator. On embryonic day 3, eggs were cracked into 100 mm sterile petri dishes without breaking the yolk sac and were transferred to a water-jacketed humidified CO2 incubator set to 37° C. On embryonic day 5, 5 μL of treatment (PA, peptide, or scrambled PA dissolved in PBS at 1 mM) or control (PBS) solutions were deposited onto autoclaved filter paper circles ¼″ in diameter. Solution-soaked filter paper circles were placed on top of the CAM and digital images were captured using a Nikon stereomicroscope. Vessel density was quantified by counting the number of vessels intersecting the circumference of filter paper circles and is expressed relative to the initial time point. ANOVA with a Dunnett's Multiple Comparisons post-test of each treatment condition against control was performed using GraphPad Prism software. A minimum of n=5 samples was analyzed for each treatment condition at each time point.

The nature of data set [2]: Critical assembly concentration determination by nile red incorporation. The class given is physicochemical. As to conditions: in PBS, nile red blueshift in peak emission. As to the method: Critical Assembly Concentration Determination by Nile Red Incorporation.
MMPA, MMPep, or ScramPA solutions ranging from 100 nM to 200 μM concentration in PBS were made from stock solutions and NR dissolved in ethanol was diluted 200-fold into solutions to a final concentration of 500 nM. Using a NanoLogHJ spectrofluorometer, samples were excited at 550 nm and spectra were obtained between from 580 nm-750 nm. Blueshift was plotted against concentration to determine the critical assembly concentration.

The subject of data set [3] is HUVECs. As to the kind of experiment: Assay of angiogenesis in vitro by tube formation. Type of data set: cell-based, human. The note with it: HUVECs on matrigel, imaged 5 hrs after addition of treatment. The method, then: Assay of Angiogenesis In Vitro by Tube Formation.
Wells of a 96-well plate were coated with ECMatrix solution, and 5×10^3 HUVECs were plated in triplicate wells in a volume of 50 μL of endothelial growth medium (EGM) containing 0.5% FBS with 50 ng/mL bFGF for 2 hours. MMPA, MMPep, ScramPA treatments at respective dosages were added to the wells for 5 hours. Tube formation was evaluated by phase-contrast microscopy using an Olympus IX-70 microscope (100× magnification) connected to a Diagnostic Instruments Spot RT Camera. Experiments were repeated independently three times.

The test system of data set [4] is HUVECs. As to the kind of experiment: Flow cytometry and confocal microscopy to assess PA binding to HUVECs. Type of data set: cell-based, human. The method, then:
Flow Cytometry and Confocal Microscopy to Assess PA Binding.
Stock fluorescent PA and peptide solutions were made by dissolving FITC-labeled molecules in PBS at a concentration of 200 μM (assuming peptide content of 90%). Stock fluorescent solutions were then mixed in equal volumes with 1 mM stock solutions of non-fluorescent PA or peptide solution and allowed to sit overnight at room temperature to make working solutions. Subconfluent human umbilical vein endothelial cells (HUVECs) were incubated for 2 hr in starvation media before detaching with 0.05% trypsin/EDTA. Cells were then spun down to remove trypsin/EDTA and were re-suspended in starvation media at 250,000/mL. Working peptide and PA solutions then added to cell suspensions such that the final concentration corresponded to 10 μM non-fluorescent molecule. After incubating at 37° C. for 30 mins, cells were spun down and resuspended in Hank's balanced salt solution (HBSS) twice. Fluorescence signal of each cell was quantified using a LSRFortessa cell analyzer (BD Biosciences). Cells were also plated on poly-d-lysine coated glass coverslips, fixed with 4% paraformaldehyde, and embedded in mounting media for imaging using an AIR laser scanning confocal microscope (Nikon). Machine parameters were kept constant for all samples in both confocal microscopy and flow cytometry experiments.
(In general: Flow cytometry measures light scatter and fluorescence of single cells or particles in a stream.)

Data set [5] deals with HUVECs. The experiment in a line: Assessment of cell migration on fibronectin (live-cell imaging). Type of data set: cell-based, human. As to conditions: HUVECs on FN-coated glass, bFGF stimulus, 10 μM. As to the method: Assessment of Cell Migration on Fibronectin.
Fibronectin from human plasma was coated onto tissue culture-treated 4-chamber glass-bottom petri dishes (In Vitro Scientific) at 7 μg/cm2 as previously described. Subconfluent HUVECs were incubated for 2 hr in starvation media before detaching with 0.05% trypsin/EDTA. Cells were then spun down to remove trypsin/EDTA, re-suspended in starvation media, and plated onto glass-bottom petri dishes at a concentration of 4000 cells per chamber. After cells attached (approximately 1 hr at 37° C.)., the media was aspirated and replaced with starvation media containing […] basic fibroblast growth factor (bFGF) and 10 μM MMPA, MMPep, or Scram PA. Live-cell imaging was performed on a Nikon BioStation IM at 37° C., and cell migration was quantified manually using a plugin to track the location of the cell nucleus every 30 mins in ImageJ software. ANOVA with a Dunnett's Multiple Comparisons post-test of each treatment condition against control was performed using GraphPad Prism software. For control, MMPA, MMPep, and ScramPA, n=56, 54, 31, and 42 respectively.

For data set [6], the system named is HUVECs. The experiment in a line: Assessment of cell adhesion on fibronectin (PicoGreen). The class given is cell-based, human. The note with it: concentration not given. As to the method:
Assessment of Cell Adhesion on Fibronectin.
The effect of peptide and PAs on HUVEC adhesion was assessed. Fibronectin from human plasma (Sigma) was dissolved in sterile MilliQ water and was added to tissue culture-treated 96 well plates at 5 μg/cm2, which were then left to dry overnight at room temperature in a sterile laminar flow hood. Coated plates were stored at 4° C. and warmed to 37° C. prior to use. Subconfluent HUVECs were incubated for 2 hr in starvation media (EndoGRO basal media from Millipore supplemented with 0.5% fetal bovine serum and 1× penicillin-streptomycin from Gibco) before detaching with 0.05% trypsin/EDTA. Cells were then spun down to remove trypsin/EDTA and were re-suspended in PBS containing peptide or PA molecules. Cells were incubated in treatment for 30 min at 37° C. and then plated at 15,000 cells/well. After 45 mins, wells were washed once with PBS to detach loosely adhered cells. A PicoGreen assay (Invitrogen) was used to quantify number of cells in each well. Cell counts were normalized to that obtained in wells with no treatment. Statistical analysis was performed in GraphPad Prism software using one-way analysis of variance (ANOVA) with a Bonferroni's Multiple Comparisons post-test comparing all pairs of columns. For all treatment groups, n=4.

Entries after “also recorded” stand apart in the source; their conditions may differ. A value given as a limit tells only on which side of the number the result lay.

For “MMPep: 15-residue peptide: maspin g-helix sequence plus two residues on either end, EDESTGLEKIEKQLN, synthesized as previously reported [reference compound]”, the “angiogenesis in CAM (vessels intersecting filter paper circumference, normalized to initial count) vs PBS control” value in data set [1] was “present but is statistically insignificant”. Moreover, the “critical aggregation assembly concentration (CAC)” value in data set [2] is greater than 200 µM. Further, the “inhibition of tube formation” value with HUVECs [3] is recorded as “slightly effective at greater than 10 μM; also recorded: partially inhibited tube formation at higher concentrations (10 μM)”. In addition, the “median FITC intensity per cell” value in the data set with HUVECs [4] (FACS, HUVECs, FITC-labeled molecule mixed with non-fluorescent molecule, 10 μM, 30 mins 37° C.) is 2.6 times that of untreated control. Also, the “cell binding (FACS, HUVEC fluorescence)” value in the data set on HUVECs [4] (HUVECs treated with FITC-labeled PAs and peptide) is given as “binds to cells significantly less effectively than PA nanostructures”. Moreover, the “cell motility / migration vs PBS control” value in the data set on HUVECs [5] is listed as “statistically less migratory (P<0.05); also recorded: significantly decrease cell motility over untreated controls”. In the data set on HUVECs [5] (measured over at least 2 hrs and up to 8 hrs), the “average cell migration speed” value amounted to 0.30 μm/min. In the data set with HUVECs [6], the “HUVEC adhesion to FN surface vs untreated controls” value is recorded as “do not show this effect; also recorded: unable to improve cell adhesion over untreated controls”.
